Laboratory results from patent US7696186B2, “7,9-substituted tetracycline compounds” (Paratek Pharmaceuticals, Inc., priority 2001, dated 2010).

Columns and labels:
Assay in all cases: In Vitro Minimum Inhibitory Concentration (MIC) Assay
Assay type in all cases: cell-based
Parameters in all cases: key: compounds which were good inhibitors of growth of a particular bacteria are indicated with *; compounds which were very good inhibitors of a particular bacteria are indicated with **; compounds with were particularly good inhibitors of a particular bacteria are indicated with ***
Conditions in all cases: CAMHB, 35° C., approximately 18 hr
[1] = tested on: E. coli
Description: (§1) In Vitro Minimum Inhibitory Concentration (MIC) Assay
(§2) The following assay is used to determine the efficacy of minocycline compounds against common bacteria. 2 mg of each compound is dissolved in 100 μl of DMSO. The solution is then added to cation-adjusted Mueller Hinton broth (CAMHB), which results in a final compound concentration of 200 μg per ml. The minocycline compound solutions are diluted to 50 μL volumes, with a test compound concentration of 0.098 μg/ml. Optical density (OD) determinations are made from fresh log-phase broth cultures of the test strains. Dilutions are made to achieve a final cell density of 1×10^6 CFU/ml. At OD=1, cell densities for different genera should be approximately:
(§3) 50 μl of the cell suspensions are added to each well of microtiter plates. The final cell density should be approximately 5×10^5 CFU/ml. These plates are incubated at 35° C. in an ambient air incubator for approximately 18 hr. The plates are read with a microplate reader and are visually inspected when necessary. The MIC is defined as the lowest concentration of the minocycline compound that inhibits growth. Compounds of the invention indicate good inhibition of growth.
(§4) In Table 2, compounds which were good inhibitors of growth of a particular bacteria are indicated with *, compounds which were very good inhibitors of a particular bacteria are indicated with **, and compounds with were particularly good inhibitors of a particular bacteria are indicated with ***.

[2] = tested on: E. hirae
Description: as §1, §2, §3, §4

[3] = tested on: S. aureus
Description: as §1, §2, §3, §4

| Compound | E. coli (inhibition of growth, MIC assay) [1] | E. hirae (inhibition of growth, MIC assay) [2] | S. aureus (inhibition of growth, MIC assay) [3] |
| --- | --- | --- | --- |
| CC(=O)NCc1cc(-c2ccccc2)c2c(c1O)C(=O)C1=C(O)[C@]3(O)C(=O)C(C(N)=O)=C(O)[C@@H](N(C)C)[C@@H]3C[C@@H]1C2 [HX] | * | *** | ** |
| CN(C)[C@@H]1C(O)=C(C(N)=O)C(=O)[C@@]2(O)C(O)=C3C(=O)c4c(O)c(CN5C(=O)c6ccccc6C5=O)cc(-c5cccc([N+](=O)[O-])c5)c4C[C@H]3C[C@@H]12 [HK] | * | ** | ** |
| COc1ccc(C#Cc2cc(C#Cc3ccc(OC)cc3)c3c(c2O)C(=O)C2=C(O)[C@]4(O)C(=O)C(C(N)=O)=C(O)[C@@H](N(C)C)[C@@H]4C[C@@H]2C3)cc1 [HC] | * | * | * |
| CN(C)[C@@H]1C(O)=C(C(N)=O)C(=O)[C@@]2(O)C(O)=C3C(=O)c4c(O)c(C(C)(C)C)cc(-c5cccc([N+](=O)[O-])c5)c4C[C@H]3C[C@@H]12 [HP] | * | *** | ** |
| CC#Cc1cc(C#CC)c2c(c1O)C(=O)C1=C(O)[C@]3(O)C(=O)C(C(N)=O)=C(O)[C@@H](N(C)C)[C@@H]3C[C@@H]1C2 [IA] | * | * | * |
| CCCCCc1cc(CN2C(=O)c3ccccc3C2=O)c(O)c2c1C[C@H]1C[C@H]3[C@H](N(C)C)C(O)=C(C(N)=O)C(=O)[C@@]3(O)C(O)=C1C2=O [HU] | * | *** | ** |
| CN(C)[C@@H]1C(O)=C(C(N)=O)C(=O)[C@@]2(O)C(O)=C3C(=O)c4c(O)c(CN5C(=O)c6ccccc6C5=O)cc(CN5C(=O)c6ccccc6C5=O)c4C[C@H]3C[C@@H]12 [HB] | * | ** | ** |
| CN(C)[C@@H]1C(O)=C(C(N)=O)C(=O)[C@@]2(O)C(O)=C3C(=O)c4c(O)c(CNC(=O)c5cccnc5)cc(CCC5CCCCC5)c4C[C@H]3C[C@@H]12 [HI] | * | ** | ** |
| CCc1cc(C#CC2=CCCCC2)c(O)c2c1C[C@H]1C[C@H]3[C@H](N(C)C)C(O)=C(C(N)=O)C(=O)[C@@]3(O)C(O)=C1C2=O [Compound HO, 7-Ethyl-9-Cyclohexenylethynyl-Sancycline] | * | *** | *** |
| CN(C)[C@@H]1C(O)=C(C(N)=O)C(=O)[C@@]2(O)C(O)=C3C(=O)c4c(O)c(CN)cc(-c5cccc([N+](=O)[O-])c5)c4C[C@H]3C[C@@H]12 [HJ] | * | ** | ** |
| CC(=O)NCc1cc(-c2ccc(F)cc2)c2c(c1O)C(=O)C1=C(O)[C@]3(O)C(=O)C(C(N)=O)=C(O)[C@@H](N(C)C)[C@@H]3C[C@@H]1C2 [HT] | * | ** | ** |
| CN(C)[C@@H]1C(O)=C(C(N)=O)C(=O)[C@@]2(O)C(O)=C3C(=O)c4c(O)c(CNC(=O)C5CCCO5)cc(-c5ccc(F)cc5)c4C[C@H]3C[C@@H]12 (stereo partly drawn) [HR] | * | ** | ** |
| CN(C)[C@@H]1C(O)=C(C(N)=O)C(=O)[C@@]2(O)C(O)=C3C(=O)c4c(O)c(CNC(=O)CCl)cc(-c5ccccc5)c4C[C@H]3C[C@@H]12 [HN] | * | ** | *** |
| CN(C)[C@@H]1C(O)=C(C(N)=O)C(=O)[C@@]2(O)C(O)=C3C(=O)c4c(O)c(-c5ccc6c(c5)OCO6)cc(-c5ccc6c(c5)OCO6)c4C[C@H]3C[C@@H]12 [Compound HZ, 7,9-Bis(3,4-Methylenedioxyphenyl)-Sancycline] | * | ** | *** |
| CCc1cc(C#Cc2ccc(OC)cc2)c(O)c2c1C[C@H]1C[C@H]3[C@H](N(C)C)C(O)=C(C(N)=O)C(=O)[C@@]3(O)C(O)=C1C2=O [HW] | * | ** | ** |

Second part, the molecule after the results:

| E. coli (inhibition of growth, MIC assay) [1] | E. hirae (inhibition of growth, MIC assay) [2] | S. aureus (inhibition of growth, MIC assay) [3] | Compound |
| --- | --- | --- | --- |
| * | ** | ** | CN(C)[C@@H]1C(O)=C(C(N)=O)C(=O)[C@@]2(O)C(O)=C3C(=O)c4c(O)c(CN)cc(-c5ccccc5)c4C[C@H]3C[C@@H]12 [HE] |
| ** | *** | *** | CCc1cc(CC)c2c(c1O)C(=O)C1=C(O)[C@]3(O)C(=O)C(C(N)=O)=C(O)[C@@H](N(C)C)[C@@H]3C[C@@H]1C2 [HV] |
| *** | *** | ** | CCCCCCc1cc(CN)c(O)c2c1C[C@H]1C[C@H]3[C@H](N(C)C)C(O)=C(C(N)=O)C(=O)[C@@]3(O)C(O)=C1C2=O [HS] |
| ** | ** | ** | CCCc1cc(CN)c(O)c2c1C[C@H]1C[C@H]3[C@H](N(C)C)C(O)=C(C(N)=O)C(=O)[C@@]3(O)C(O)=C1C2=O [HL] |
| * | * | ** | CCc1cc(CN)c(O)c2c1C[C@H]1C[C@H]3[C@H](N(C)C)C(O)=C(C(N)=O)C(=O)[C@@]3(O)C(O)=C1C2=O [HG] |
| * | ** | * | CCc1cc(CNC(=O)c2cccnc2)c(O)c2c1C[C@H]1C[C@H]3[C@H](N(C)C)C(O)=C(C(N)=O)C(=O)[C@@]3(O)C(O)=C1C2=O [HF] |
| ** | ** | ** | CCCCc1cc(CN)c(O)c2c1C[C@H]1C[C@H]3[C@H](N(C)C)C(O)=C(C(N)=O)C(=O)[C@@]3(O)C(O)=C1C2=O [HQ] |
| ** | ** | ** | CN(C)[C@@H]1C(O)=C(C(N)=O)C(=O)[C@@]2(O)C(O)=C3C(=O)c4c(O)c(CN)cc(-c5ccc(F)cc5)c4C[C@H]3C[C@@H]12 [HM] |
